These are literature values, as cited in PMC5796656 (Journal of the American Chemical Society, 2015).

For this data set the following is noted: ref [26].

For `O=C([O-])CN1CCN(CC(=O)[O-])CCN(CC(=O)[O-])CCN(CC(=O)[O-])CC1.[Gd+3]` [GdDOTA], the τM is recorded as 243 ns.
